# Article PMC5854716, “Synthesis, molecular docking, ctDNA interaction, DFT calculation and evaluation of antiproliferative and anti-Toxoplasma gondii activities of 2,4-diaminotriazine-thiazole derivatives” (Medicinal Chemistry Research, 2018)
# Tests used:
# mouse L929 fibroblast = test: Cell viability assay (MTT), L929; type: cell-based; conditions: concentration for 30% proliferation inhibition, 24 h
# Method: (§1) The epithelial cell line VERO (ATCC-Catalog No. CCL-81^TM), derived from the kidney of the African green monkey, Cercopithecus aethiops and fibroblast cell line L-929 (ATCC-Catalog No. CCL-1^TM), derived from Mus musculus (http://www.atcc.org) were grown in Iscoves’s Modified Dulbecco’s Medium (IMDM) supplemented with 10% (v/v) fetal bovine serum (FBS), plus 2 mM L-glutamine, 100 U/ml penicillin, 100.00 µg/ml streptomycin, 5 × 10^−5 M 2-mercaptoethanol and maintained at 37 °C in a 10% CO2 atmosphere. Subcultures were performed via enzymatic cell dissociation in 0.25% trypsin. After dissociation, the cells were placed in culture medium at 4 °C with 10% FBS to inhibit the action of trypsin. The isolated cells were centrifuged for 10 min at 1000×g at 4 °C, and the cells were grown in new bottles. This procedure was repeated when cells reached a confluence of ~90%. All commercial reactants and solvents were purchased from either Sigma-Aldrich Laborchemikalien GmbH (Dzitko et al. [2014]).
# (§2) Suspensions of the compounds 4a–l were freshly prepared (5 mg/ml DMSO) before the cells were exposed, and diluted to appropriate concentrations; 0.9, 1.8, 3.9, 7.8, 15.6, 31.2, 62.5, and 125.00 μg/ml with the culture medium. Cells treated with 2.5% DMSO-solvent served as a control in each experiment.
# (§3) The effects of tested compounds on the viability of mouse fibroblasts L929 and […] VERO cells were evaluated using the MTT assay. The MTT assay was used according to international standards: ISO 10993-5:2009 (Tests for in vitro cytotoxicity; http://www.iso.org/iso/catalogue_detail.htm? csnumber = 36406). L929 and VERO cells were plated into 96-well plates at a density of 1.0 × 10^4/100 μl/well in culture medium and allowed to attach for 24 h before treatment. Afterwards, culture medium in the plates was replaced by 100 μl compounds suspension at concentration of 0–125 μg/ml and the cells were exposed for 24 h. Then 1 mg/ml MTT (50 μl/well) was added to each well and incubated at 37 °C, 10 % CO2 for 2 h. Mitochondrial dehydrogenases of viable cells reduce the yellowish water-soluble MTT to water-insoluble formazan crystals, which were solubilized with dimethyl sulfoxide (DMSO). The cell culture medium was aspirated cautiously, after which 150 μl DMSO was added to each well and mixed thoroughly. Optical density (OD) was read on the ELISA reader (Multiskan EX, Labsystems; http://www.mtxlsi.com/multiskan_EX.htm) at 550 nm. The results were expressed as percentage viability compared with the treated 2.5% DMSO controls. All experiments were performed in triplicate.
# [1] = Cell viability assay (MTT), L929; type: cell-based, Mus musculus; conditions: mouse, L929 fibroblast cells
# Method: as §1, §2, §3
# [2] = test system: Toxoplasma gondii BK strain; test: T. gondii tachyzoite intracellular proliferation in VERO host cells ([3H]uracil incorporation); type: cell-based; conditions: Toxoplasma gondii, VERO host cells
# Method: as §1, §2
# Stock solutions of the Sulfadiazine (100 mg/ml 1 N NaOH; Catalog No. S8626) was freshly prepared before each experiment, and diluted to appropriate concentrations: 5.00, 25.00, 50.00, 125.00, 250.00, 500.00, 1250.00, and 2500.00 μg/ml, respectively in IMDM complete medium. All commercial reactants and solvents were purchased from either Sigma-Aldrich Laborchemikalien GmbH.
# Tachyzoites of T. gondii, BK strain, were maintained in female C57BL/6 (H-2^b) and BALB/c (H-2^d) mice (with genetically determined high and low susceptibility, respectively to Toxoplasma infection) via serial intraperitoneal inoculation of 10^5–10^6 parasites per mouse in phosphate-buffered saline (PBS). After 48 to 96 h, parasites were harvested via peritoneal lavage using PBS, pH 7.2, and centrifuged at 200×g for 5 min to remove blood cells and cell debris. The supernatant containing tachyzoites was collected and centrifuged again at 2000×g for 15 min. The final pellet was resuspended in IMDM, quantified in a Burker’s chamber, and used in experimental assays. Inbred mice were kept under standard laboratory conventional conditions. All experimental procedures were conducted according to guidelines of the 9. Local Ethics Commission for Experiments on Animals in Lodz.
# VERO, (2 × 10^4 cells/100 µl/well) were grown in complete medium (IMDM) on 96-well plates. After 24 h incubation, a medium was removed and then T. gondii […] tachyzoites, suspended in culture medium supplemented with 0.9–125.00 μg/ml diaminotriazines 4a–l and as a control-sulfadiazine (5.0–2500.0 μg/ml), were added (2 × 10^5 tachyzoites/200 µl/well) to the cell monolayers. After subsequent 48 h incubation 1 µCi/well of [^3H] uracil (Moravek Biochemicals Inc., Brea, CA, USA) was applied to each microculture for further 18–20 h. The amount of the isotope incorporated into the parasite nucleic acid pool, corresponding to the parasite growth, was measured by liquid scintillation counting with 1450 Microbeta Plus Liquid Scintillation Counter (Wallac Oy, Turku, Finland). The cpms of host cells alone (below 250/microculture) were subtracted from cpms of T. gondii infected microcultures (Dzitko et al. [2014]).
# [3] = Cell viability assay (MTT), VERO; type: cell-based, Cercopithecus aethiops; conditions: African green monkey (Cercopithecus aethiops), VERO kidney epithelial cells
# Method: as §1, §2, §3
# VERO cells = test: Cell viability assay (MTT), VERO; type: cell-based, Cercopithecus aethiops; conditions: concentration for 30% proliferation inhibition, 24 h
# Method: as §1, §2, §3
smiles,measurement,setting,value
"C/C(=N\NC(N)=S)c1ccc(Nc2nc(N)nc(N)n2)cc1 [Compound 3, (2E)-2-(1-(4-((4,6-diamino-1,3,5-triazin-2-yl)amino)phenyl)ethylidene)hydrazinecarbothioamide]",melting point,,> 230 °C
same,CC30 L929,mouse L929 fibroblast,>125.0 µg/mL
same,"viability at 24 h, 0.9 µg/ml",[1]; 0.9 µg/ml,110%
same,"viability at 24 h, 1.8 µg/ml",[1]; 1.8 µg/ml,116%
same,"viability at 24 h, 3.9 µg/ml",[1]; 3.9 µg/ml,111%
same,"viability at 24 h, 7.8 µg/ml",[1]; 7.8 µg/ml,106%
same,"viability at 24 h, 15.6 µg/ml",[1]; 15.6 µg/ml,105%
same,"viability at 24 h, 31.2 µg/ml",[1]; 31.2 µg/ml,112%
same,"viability at 24 h, 62.5 µg/ml",[1]; 62.5 µg/ml,111%
same,"viability at 24 h, 125 µg/ml",[1]; 125.0 µg/ml,110%
same,activity at 0.9 µg/mL,[2]; 0.9 µg/ml,100%
same,activity at 1.8 µg/mL,[2]; 1.8 µg/ml,107%
same,activity at 3.9 µg/mL,[2]; 3.9 µg/ml,98.6%
same,activity at 7.8 µg/mL,[2]; 7.8 µg/ml,84.2%
same,activity at 15.6 µg/mL,[2]; 15.6 µg/ml,64.6%
same,activity at 31.2 µg/mL,[2]; 31.2 µg/ml,57.8%
same,activity at 62.5 µg/mL,[2]; 62.5 µg/ml,49.4%
same,activity at 125 µg/mL,[2]; 125.0 µg/ml,48.7%
same,IC50,"[2]; GraphPad Prism curves, read-out: IC50 (50% inhibition of T. gondii proliferation in vitro)",70.4 µg/mL
same,"viability at 24 h, 0.9 µg/ml",[3]; 0.9 µg/ml,97.2%
same,"viability at 24 h, 1.8 µg/ml",[3]; 1.8 µg/ml,94%
same,"viability at 24 h, 3.9 µg/ml",[3]; 3.9 µg/ml,97.3%
same,"viability at 24 h, 7.8 µg/ml",[3]; 7.8 µg/ml,88.8%
same,"viability at 24 h, 15.6 µg/ml",[3]; 15.6 µg/ml,89.5%
same,"viability at 24 h, 31.2 µg/ml",[3]; 31.2 µg/ml,96.2%
same,"viability at 24 h, 62.5 µg/ml",[3]; 62.5 µg/ml,95.1%
same,"viability at 24 h, 125 µg/ml",[3]; 125.0 µg/ml,89.2%
same,CC30 VERO,VERO cells,>125.0 µg/mL
